# Laboratory results as given in patent US7462605B2, “Phosphoramidate compounds and methods of use” (Celmed Oncology (USA), Inc., priority 2002, dated 2008).
# Like-named read-outs stand apart in the source and are kept apart here.
# Experiments:
# NHLF (Lung) normal cells = assay: alamarBlue growth inhibition, NHLF; assay type: cell-based, human; settings: Homo sapiens, 120 hours
# Protocol: (§1) Growth Inhibition Studies. Cells growing exponentially were transferred to 384-well flat bottom tissue culture plates. All cell types were plated at a density of 500 cells per well in 25 μL of complete medium (RPMI 1640+10% fetal bovine serum+antibiotics/antimycotics). After 24 hours (day 0), 25 μL of complete medium containing the experimental compounds over the dose range of 10^ñ3 to 10^ñ10 M were added in triplicate. […] 5 μL of the redox indicator, alamarBlue, was added to each well (10% v/v). After 4 hours incubation at 37° C., fluorescence was monitored at 535 nm excitation and 595 nm emission.
# (§2) Concentration vs. relative fluorescence units (RFU) were plotted, and sigmoid curves were fit using the Hill equation.
# [1] = system: SW527 (Breast) tumor cells; assay: alamarBlue growth inhibition, SW527; assay type: cell-based, human; settings: Homo sapiens, 120 hours
# Protocol: as §1, §2
# [2] = system: NCI H520 (Lung) tumor cells; assay: alamarBlue growth inhibition, NCI H520; assay type: cell-based, human; settings: Homo sapiens, 120 hours
# Protocol: as §1, §2
# [3] = system: normal and tumor cell types; assay: cells; settings: Homo sapiens
# Protocol: Growth Inhibition Studies. Cells growing exponentially were transferred to 384-well flat bottom tissue culture plates. All cell types were plated at a density of 500 cells per well in 25 μL of complete medium (RPMI 1640+10% fetal bovine serum+antibiotics/antimycotics). After 24 hours (day 0), 25 μL of complete medium containing the experimental compounds over the dose range of 10^ñ3 to 10^ñ10 M were added in triplicate. Drug exposure time was 120 hours (day 5), after which growth inhibition was assayed. 5 μL of the redox indicator, alamarBlue, was added to each well (10% v/v). After 4 hours incubation at 37° C., fluorescence was monitored at 535 nm excitation and 595 nm emission.
# as §2
# Assays were carried out as described in Methods, above. Therapeutic index is calculated as the ratio of the average IC50 for normal cells to the average IC50 for tumor cells. All assays were done at least three times.
# [4] = system: CCD18co normal colon epithelial cells; assay: alamarBlue growth inhibition, CCD18co; assay type: cell-based, human; settings: Homo sapiens, CCD-18Co; Normal Cells: CCD1800 (Colon); alamarBlue, 120 hours
# Protocol: as §1, §2
# [5] = system: SKOV3 (Ovary) tumor cells; assay: alamarBlue growth inhibition, SKOV3; assay type: cell-based, human; settings: Homo sapiens, SK-OV-3, 120 hours
# Protocol: as §1, §2
# [6] = system: DET551 (Skin) normal cells; assay: alamarBlue growth inhibition, DET551; assay type: cell-based, human; settings: Homo sapiens, 120 hours
# Protocol: as §1, §2
# [7] = system: SKHEP1 (Liver) tumor cells; assay: alamarBlue growth inhibition, SKHEP1; assay type: cell-based, human; settings: Homo sapiens, SK-HEP1, 120 hours
# Protocol: as §1, §2
# [8] = system: COLO205 (Colon) tumor cells; assay: alamarBlue growth inhibition, COLO205; assay type: cell-based, human; settings: Homo sapiens, COLO 205, 120 hours
# Protocol: as §1, §2
# A431 (Skin) tumor cells = assay: alamarBlue growth inhibition, A431; assay type: cell-based, human; settings: Homo sapiens, A-431, 120 hours
# Protocol: as §1, §2
# W138 (Lung) normal cells = assay: alamarBlue growth inhibition, W138; assay type: cell-based, human; settings: Homo sapiens, 120 hours
# Protocol: as §1, §2
# MRC9 (Lung) normal cells = assay: alamarBlue growth inhibition, MRC9; assay type: cell-based, human; settings: Homo sapiens, 120 hours
# Protocol: as §1, §2
# [9] = system: NHOST (Bone) normal cells; assay: alamarBlue growth inhibition, NHOST; assay type: cell-based, human; settings: Homo sapiens, 120 hours
# Protocol: as §1, §2
# [10] = system: NPRSC (Prostate) normal cells; assay: alamarBlue growth inhibition, NPRSC; assay type: cell-based, human; settings: Homo sapiens, 120 hours
# Protocol: as §1, §2
# [11] = system: NHEPF (Liver) normal cells; assay: alamarBlue growth inhibition, NHEPF; assay type: cell-based, human; settings: Homo sapiens, 120 hours
# Protocol: as §1, §2
# H527 (Skin) normal cells = assay: alamarBlue growth inhibition, H527; assay type: cell-based, human; settings: Homo sapiens, 120 hours
# Protocol: as §1, §2
# [12] = system: H630R10 5FU-resistant colon tumor cells; assay: alamarBlue growth inhibition, H630R10; assay type: cell-based, human; settings: Homo sapiens; Tumor Cells: H630R10 (Colon); alamarBlue, 120 hours; read-out: IC50
# Protocol: as §1, §2
# NHA (Brain) normal cells = assay: alamarBlue growth inhibition, NHA; assay type: cell-based, human; settings: Homo sapiens, 120 hours
# Protocol: as §1, §2
# [13] = system: HEPG2 (Liver) tumor cells; assay: alamarBlue growth inhibition, HEPG2; assay type: cell-based, human; settings: Homo sapiens, 120 hours
# Protocol: as §1, §2
# NHDF (Skin) normal cells = assay: alamarBlue growth inhibition, NHDF; assay type: cell-based, human; settings: Homo sapiens, 120 hours
# Protocol: as §1, §2
# SOAS2 (Bone) tumor cells = assay: alamarBlue growth inhibition, SOAS2; assay type: cell-based, human; settings: Homo sapiens, 120 hours
# Protocol: as §1, §2
# [14] = system: PANC1 (Pancreas) tumor cells; assay: alamarBlue growth inhibition, PANC1; assay type: cell-based, human; settings: Homo sapiens, PANC-1, 120 hours
# Protocol: as §1, §2
# [15] = system: COLO320 (Colon) tumor cells; assay: alamarBlue growth inhibition, COLO320; assay type: cell-based, human; settings: Homo sapiens, COLO 320, 120 hours
# Protocol: as §1, §2
# [16] = system: MDAMB468 (Breast) tumor cells; assay: alamarBlue growth inhibition, MDAMB468; assay type: cell-based, human; settings: Homo sapiens, MDA-MB-468, 120 hours
# Protocol: as §1, §2
# [17] = system: SKCO1 (Colon) tumor cells; assay: alamarBlue growth inhibition, SKCO1; assay type: cell-based, human; settings: Homo sapiens, SK-CO-1, 120 hours
# Protocol: as §1, §2
# [18] = system: PC3 (Prostate) tumor cells; assay: alamarBlue growth inhibition, PC3; assay type: cell-based, human; settings: Homo sapiens, 120 hours
# Protocol: as §1, §2
# [19] = system: MCIxc (Brain) tumor cells; assay: alamarBlue growth inhibition, MCIxc; assay type: cell-based, human; settings: Homo sapiens, MC-IXC, 120 hours
# Protocol: as §1, §2
# [20] = H630-10 5-FU resistant colon carcinoma xenografts in athymic mice; settings: female, CD-1 (nu/nu) athymic, mouse, in vivo, ip
# Protocol: Tumor measurements began on the first day of treatment (Day 1).
# Following cell expansion ex-vivo H630-10 were injected subcutaneously (S.Q.) at 1.5×10^7 cells/tumor in the mid-back region of 4-6 week old, female, CD-1 (nu/nu), athymic mice (Charles River Laboratories, Wilmington, Mass.). Tumor volumes, calculated as the product of length, width, and depth, were monitored twice weekly by serial micrometer measurements by a single observer. Six animals were randomly assigned to each treatment group and statistical tests were performed (single-factor ANOVA) to assure uniformity in starting tumor volumes between treatment and control groups at the beginning of the experiment. […] To assure accurate dosing, drug doses were individualized based upon animal weights determined immediately prior to each injection. […] Differences in day 25 xenograft volumes between groups were analyzed by single-factor ANOVA of the log transformed tumor volume data.
# [21] = system: SW620 (Colon) tumor cells; assay: alamarBlue growth inhibition, SW620; assay type: cell-based, human; settings: Homo sapiens, SW-620, 120 hours
# Protocol: as §1, §2
# [22] = system: HT1080 (Colon) tumor cells; assay: alamarBlue growth inhibition, HT1080; assay type: cell-based, human; settings: Homo sapiens, HT-1080, 120 hours
# Protocol: as §1, §2
# HCTC (Colon) tumor cells = assay: alamarBlue growth inhibition, HCTC; assay type: cell-based, human; settings: Homo sapiens, 120 hours
# Protocol: as §1, §2
# SKLU1 (Lung) tumor cells = assay: alamarBlue growth inhibition, SKLU1; assay type: cell-based, human; settings: Homo sapiens, SK-LU-1, 120 hours
# Protocol: as §1, §2
# [23] = system: MDAMB361 (Breast) tumor cells; assay: alamarBlue growth inhibition, MDAMB361; assay type: cell-based, human; settings: Homo sapiens, MDA-MB-361, 120 hours
# Protocol: as §1, §2
# MCF7TDX cells = assay: 384-well interaction screening assay (alamarBlue) with NB1011, MCF7TDX; assay type: cell-based, human; settings: drug combined with NB1011, MCF7TDX, 384-well alamarBlue, 5-day
# Protocol: Cell lines: Normal human colon epithelial cells (CCD18co) and skin fibroblasts (Det55 1) were purchased from ATCC (Rockville,Md.). MCF7TDX, human breast carcinoma cells resistant to 2 μM Tomudex were obtained from Dr. Patrick Johnston, Queens University, Belfast. […] The MCF7TDX and the H630R10 cell lines have been previously described in Drake, J. C. et al. (1996) and Copur, S. et al. (1995) respectively.
# Culture Conditions: All cells were cultured under standard conditions of 37° C., 95% humidified air, 5% CO2 in RPMI 1640 culture medium containing 10% fetal calf serum (Life Technologies) and penicillin/streptomycin/fungizone. […] The medium was renewed or the cells were passaged about every three days to maintain optimal growth conditions. […]
# Cytotoxicity Studies: 384-well interaction screening assay. […] Following a 5-day incubation, the redox indicator dye, alamarBlue (AccuMed International, Westlake, Ohio) was added to each well at a 10% v/v ratio, and fluorescence was monitored at 535 excitation, 595 emission. Cytotoxic effect levels and drug interactions were assessed by the combination index method (Chou, T. C. and Talalay, P. (1984) and Bible, K. C. et al. (1997)), described briefly below. […] Sigmoid curves were fit according to the Hill inhibitory Emax model, and IC50 calculated as the average of three or more separate determinations. […]
# TSH/HT1080 cells = assay: alamarBlue cytotoxicity, HT1080 expressing high GFP-TS; assay type: cell-based, human; settings: second line printed TSL/HT1080, TS Level 702%
# Protocol: (§3) Cell lines and transfection. HT1080 cells were grown in PRM11640 medium supplemented with 10% fetal calf serum, and transfected with GFP-TS expression vector. 48 hours after, transfection cells were tripsinized and replated in culture medium containing 750 μg/ml G418. After selection with G418 for two weeks, surviving cells were sorted based upon fluorescence expression. One clone with higher fluorescence expression (named as TSH/HT1080) and one clone with lower fluorescence expression (named as TSL/HT1080) were selected and expanded into cells lines. The stable HT1080 cells transfected with pEGFP-C3 were used as control.
# (§4) Construction of GFP-TS expression vector. […] The cDNA was cloned into HindIII and KpnI sites of mammalian expression vector pEGFP-C3 (Clontech Laboratories. Inc., Palo Alto, Calif.), in-frame with GFP sequence. The cDNA insert was confirmed by DNA sequencing.
# (§5) Growth Inhibition Studies. Cells growing exponentially were transferred to 384-well flat bottom tissue culture plates. All cell types were plated at a density of 500 cells per well in 25 μL of complete medium (RPMI 1640+10% fetal bovine serum+antibiotics/antimycotics). […] After 4 hours incubation at 37° C., fluorescence was monitored at 535 nm excitation and 595 nm emission.
# as §2
# C/HT1080 cells = assay: alamarBlue cytotoxicity, control-transfected HT1080; assay type: cell-based, human; settings: C/HT1080, TS Level 100%
# Protocol: as §3, §4, §5, §2
# [24] = system: CCD18co normal colon epithelial cells; assay: Thymidine rescue, alamarBlue cytotoxicity; assay type: cell-based, human
# Excerpt: An additional approach was taken to understanding whether NB1011 might interfere with cell growth primarily by inactivating TS. This approach is based upon thymidine rescue of TS-blocked cells. […] For this reason, they survive only by scavenger mechanisms. One of the important scavenger mechanisms is utilization of extracellular thymidine. Thymidine incorporated by target cells can be converted to dTMP, usually by thymidine kinase, and thus continue DNA synthesis. Other pathways for use of exogenous thymidine have also been described If an important mechanism for NB1011 activity is via inhibition of endogenous TS, then the cytotoxicity should be relieved when thymidine is added to the cell culture media. For this experiment, a number of tumor cell lines were screened for their sensitivity to Tomudex and 5FdUrd, and ability to be rescued from these agents via thymidine supplementation. […] Experiments were carried out as described by (Patterson, et al. (1998)) with or without 10 μM thymidine, except that the alamarBlue assay was employed to determine cytotoxicity.
# TSL/HT1080 cells = assay: alamarBlue cytotoxicity, HT1080 expressing low GFP-TS; assay type: cell-based, human; settings: TSL/HT1080, TS Level 409%
# Protocol: as §3, §4, §5, §2
compound,measurement,setting,value
"O=c1[nH]cc(F)c(=O)[nH]1 [5FU, 5-fluorouracil]",IC50,NHLF (Lung) normal cells,0.9 µM
same,IC50,[1],4.3 µM
same,IC50,[2],0.6 µM
same,IC50,"[3]; read-out: IC50 (μM), Average, average of the 11 normal cell types",1.6 µM
same,IC50,"[3]; read-out: IC50 (μM), Average, average of the 21 tumor cell lines",5.3 µM
same,IC50,[4],2 µM
same,IC50,[5],3 µM
same,IC50,[6],0.8 µM
same,IC50,[7],1.7 µM
same,IC50,[8],1.3 µM
same,IC50,A431 (Skin) tumor cells,0.2 µM
same,IC50,W138 (Lung) normal cells,1 µM
same,IC50,MRC9 (Lung) normal cells,1.1 µM
same,IC50,[9],4.7 µM
same,IC50,[10],1.7 µM
same,IC50,[11],1.7 µM
same,IC50,H527 (Skin) normal cells,1.6 µM
same,IC50,[12],41.6 µM
same,IC50,NHA (Brain) normal cells,0.9 µM
same,IC50,[13],22.8 µM
same,IC50,NHDF (Skin) normal cells,0.8 µM
same,IC50,SOAS2 (Bone) tumor cells,1.4 µM
same,IC50,[14],1.9 µM
same,IC50,[15],1.5 µM
same,IC50,[16],4.4 µM
same,IC50,[17],1.4 µM
same,IC50,[18],0.9 µM
same,IC50,[19],1.2 µM
same,MTD at 5 days,[20],15 mg/kg
same,IC50,[21],4.6 µM
same,IC50,[22],0.8 µM
same,IC50,HCTC (Colon) tumor cells,2.8 µM
same,IC50,SKLU1 (Lung) tumor cells,7.9 µM
same,IC50,[23],5 µM
N.N.[Cl][Pt][Cl] [Cisplatin],Combination Index ± s.e.m.,MCF7TDX cells,1.51 ± 0.35
O=c1[nH]c(=O)n([C@H]2C[C@H](O)[C@@H](CO)O2)cc1F [FUDR],IC50,TSH/HT1080 cells,3.1 µM
same,IC50,C/HT1080 cells,< 0.1 µM
same,IC50,[24]; in the presence of 10 μM thymidine,> 5.9 µM
same,IC50,[24]; without thymidine,< 0.01 µM
same,IC50,TSL/HT1080 cells,2.2 µM
CCc1c2c(nc3ccc(OC(=O)N4CCC(N5CCCCC5)CC4)cc13)-c1cc3c(c(=O)n1C2)COC(=O)[C@]3(O)CC [Irinotecan],Combination Index ± s.e.m.,MCF7TDX cells,1.36 ± 0.38
